In patent US20260365641A1, “Aromatic Acetylene Derivative, Preparation Method Therefor, And Use Thereof” (Zhejiang Hisun Pharmaceutical Co., Ltd., priority 2022, published 2026):
Converted amounts (≈) assume the structure as drawn.

Key:
[1] = biological target: T1, recombinant Pseudomonas aeruginosa LpxC (Pseudomonas aeruginosa, UniProt P47205); assay: Inhibition of enzymatic activity of recombinant Pseudomonas aeruginosa LpxC in vitro; type: biochemical; details: 5 nM LpxC; substrate UDP-3-O—(R-3-hydroxydecanoyl)-GlcNAc; 25 °C, 120 minutes; fluorescamine readout
T1 construct: purchased Signalway Antibody AP74647-2
T1 sequence (P47205 1-303): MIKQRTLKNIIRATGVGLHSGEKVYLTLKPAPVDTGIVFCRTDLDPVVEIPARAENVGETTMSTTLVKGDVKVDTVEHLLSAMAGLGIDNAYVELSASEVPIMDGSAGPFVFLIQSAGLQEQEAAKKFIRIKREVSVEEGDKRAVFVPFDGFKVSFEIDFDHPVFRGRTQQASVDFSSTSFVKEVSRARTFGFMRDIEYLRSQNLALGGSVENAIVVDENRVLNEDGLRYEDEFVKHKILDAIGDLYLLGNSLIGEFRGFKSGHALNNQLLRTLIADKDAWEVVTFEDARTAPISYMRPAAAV
Procedure: The following method was used to determine degrees of inhibition of the compounds of the present invention on the enzymatic activity of recombinant Pseudomonas aeruginosa LpxC in vitro.
The test process was briefly described as follows: the tested compound was first dissolved in DMSO to prepare a 10 mM storage solution. The reaction was carried out in a 96-well microplate. Firstly, 20 μL of recombinant Pseudomonas aeruginosa LpxC (purchased from Signalway Antibody, article number AP74647-2) was added into the wells, and the final concentrations were 5 nM respectively. 5 μL of the compound to be tested was added, diluted in 4-fold, with 8 concentration points, and the concentration range was 0.61-10000 nM. 5 μL of LpxC substrate UDP-3-O—(R-3-hydroxydecanoyl)-GlcNAc (purchased from Biosynth Carbosynth, article number mu75071) was added, wherein a final concentration of the substrate was […], and the substrate was incubated at 25 °C for 120 minutes. Subsequently, 20 μL of 2.0 mg/mL fluorescamine (purchased from sigma aldrich, article number F9015, wherein a solvent was dimethylformamide/acetonitrile (1:1)) was added to the reaction system, mixed evenly and reacted for 10 minutes. Finally, 50 μL of 200 mM sodium phosphate buffer solution (pH 8.0) was added to stop the reaction, and a microplate reader (BMG) was used for reading. An excitation wavelength and an emission wavelength were 390 nm and 495 nm respectively. Compared with the fluorescence intensity ratio of a control group (0.1% DMSO), the percentage inhibition rates of the compounds at each concentration were calculated, and the IC50 values of the compounds were obtained by performing nonlinear regression analysis with logarithmic value of the compound concentration-inhibition rate by GraphPad Prism 5 software, which can be seen in Table 1.

E. coli ATCC 25922 = assay: Antibacterial activity, minimum inhibitory concentration (MIC) in vitro, broth dilution; type: cell-based; details: Escherichia coli, ATCC25922, 5×10^5 cfu/mL, 35 °C, 18-24 hours
Procedure: (§1) The minimum inhibitory concentration (MIC) in vitro was determined according to CLSI's guidelines, and a minimal broth dilution method was used.
(§2) The test process was briefly described as follows: the tested compound was dissolved in DMSO to prepare a storage solution of […], and then prepared into 11 two-fold-diluted 100× high-concentration working liquids (a final concentration of the system was 64 μg/mL to 0.06 μg/mL) by DMSO. Stains (K. pneumoniae ATCC13883, K. pneumoniae ATCC51504 and E. coli ATCC 25922) frozen at −80 °C with glycerin were inoculated to a solid agar culture medium, placed into an incubator for culturing for 18-24 hours at 35 °C to finish the preparation work of the strains. A proper amount of solid plate culture was collected, re-suspended in normal saline, and uniformly mixed. The turbidity of the bacterial suspension was adjusted to a proper turbidity by a turbidity meter, containing about 1×10^8 cfu/mL of bacteria. Then, the turbidity-regulated bacterial suspension was diluted with a test culture medium (type: CAMHIIB, purchased from BD company) to a bacterial concentration of 5×10^5 cfu/mL, thus finishing the preparation of an inoculation solution. 198 μL of the inoculation solution was inoculated into a 96-well plate, and added with 2 μL 100× high concentration working liquid of the compound, then the 96-well plate was placed at 35 °C for culturing for 18-24 hours.

K. pneumoniae ATCC51504 = assay: as above; type: cell-based; details: Klebsiella pneumoniae, 5×10^5 cfu/mL, 35 °C, 18-24 hours
Procedure: as §1, §2

Structure (SMILES)	IC50 [1]	MIC (E. coli ATCC 25922)	MIC (K. pneumoniae ATCC51504)
CC(=O)N1CC=C(C#Cc2ccc(-c3cc(Cn4ccnc4[C@H](C)O)no3)cc2)CC1 [Example 62, (S)-1-(4-((4-(3-((2-(1-hydroxyethyl)-1H-imidazol-1-yl)methyl)isoxazol-5-yl)phenyl)ethynyl)-3,6-dihydropyridin-1(2H)-yl)ethan-1-one]	18 nM	0.5 µg/mL (≈ 1.2 µM)	0.5 µg/mL (≈ 1.2 µM)
C[C@H](O)c1nccn1Cc1cc(-c2ccc(C#CC3=CCN(C(=O)C4(O)CC4)CC3)cc2)on1 [Example 69, (S)-(1-hydroxycyclopropyl)(4-((4-(3-((2-(1-hydroxyethyl)-1H-imidazol-1-yl)methyl)isoxazol-5-yl)phenyl)ethynyl)-3,6-dihydropyridin-1(2H)-yl)methanone]	20.8 nM	2 µg/mL (≈ 4.36 µM)	2 µg/mL (≈ 4.36 µM)
C[C@H](O)c1nccn1Cc1cc(-c2ccc(C#CC3=CCN(C(=O)C4COCCO4)CC3)cc2)on1 (stereo partly drawn) [Example 64, (1,4-dioxan-2-yl)(4-((4-(3-((2-((S)-1-hydroxyethyl)-1H-imidazol-1-yl)methyl)isoxazol-5-yl)phenyl)ethynyl)-3,6-dihydropyridin-1(2H)-yl)methanone]	19.1 nM	1 µg/mL (≈ 2.05 µM)	0.5 µg/mL (≈ 1.02 µM)
C[C@H](O)c1nccn1Cc1cc(-c2ccc(C#CC3=CCN(C(=O)c4cnccn4)CC3)cc2)on1 [Example 38, (S)-(4-((4-(3-((2-(1-hydroxyethyl)-1H-imidazol-1-yl)methyl)isoxazol-5-yl)phenyl)ethynyl)-3,6-dihydropyridin-1(2H)-yl)(pyrazin-2-yl)methanone]	22.7 nM	0.25 µg/mL (≈ 0.52 µM)	0.5 µg/mL (≈ 1.04 µM)
COCC(=O)N1CC=C(C#Cc2ccc(-c3cc(Cn4ccnc4[C@H](C)O)no3)cc2)CC1 [Example 68, (S)-1-(4-((4-(3-((2-(1-hydroxyethyl)-1H-imidazol-1-yl)methyl)isoxazol-5-yl)phenyl)ethynyl)-3,6-dihydropyridin-1(2H)-yl)-2-methoxyethan-1-one]	21.2 nM	1 µg/mL (≈ 2.24 µM)	1 µg/mL (≈ 2.24 µM)
COCCC(=O)N1CC=C(C#Cc2ccc(-c3cc(Cn4ccnc4[C@H](C)O)no3)cc2)CC1 [Example 67, (S)-1-(4-((4-(3-((2-(1-hydroxyethyl)-1H-imidazol-1-yl)methyl)isoxazol-5-yl)phenyl)ethynyl)-3,6-dihydropyridin-1(2H)-yl)-3-methoxypropan-1-one]	22.9 nM	1 µg/mL (≈ 2.17 µM)	0.5 µg/mL (≈ 1.09 µM)
C[C@H](O)c1nccn1Cc1cc(-c2ccc(C#CC3=CCN(CCn4cncn4)CC3)cc2)on1 [Example 43, (S)-1-(1-((5-(4-((1-(2-(1H-1,2,4-triazol-1-yl)ethyl)-1,2,3,6-tetrahydropyridin-4-yl)ethynyl)phenyl)isoxazol-3-yl)methyl)-1H-imidazol-2-yl)ethan-1-ol]	25.8 nM	2 µg/mL (≈ 4.26 µM)	1 µg/mL (≈ 2.13 µM)
C[C@H](O)c1nccn1Cc1cc(-c2ccc(C#CC3=CCN(C(=O)c4ccccn4)CC3)cc2)on1 [Example 61, (S)-(4-((4-(3-((2-(1-hydroxyethyl)-1H-imidazol-1-yl)methyl)isoxazol-5-yl)phenyl)ethynyl)-3,6-dihydropyridin-1(2H)-yl)(pyridin-2-yl)methanone]	11.5 nM	1 µg/mL (≈ 2.09 µM)	0.5 µg/mL (≈ 1.04 µM)
C[C@H](O)c1nccn1Cc1cc(-c2ccc(C#CC3=CCN(CC(N)=O)CC3)cc2)on1 [Example 59, (S)-2-(4-((4-(3-((2-(1-hydroxyethyl)-1H-imidazol-1-yl)methyl)isoxazol-5-yl)phenyl)ethynyl)-3,6-dihydropyridin-1(2H)-yl)acetamide]	23.8 nM	2 µg/mL (≈ 4.64 µM)	0.5 µg/mL (≈ 1.16 µM)
C[C@H](O)c1nccn1Cc1cc(-c2ccc(C#CC3=CCN(C(=O)N4CCOCC4)CC3)cc2)on1 [Example 60, (S)-(4-((4-(3-((2-(1-hydroxyethyl)-1H-imidazol-1-yl)methyl)isoxazol-5-yl)phenyl)ethynyl)-3,6-dihydropyridin-1(2H)-yl)(morpholino)methanone]	25.3 nM	2 µg/mL (≈ 4.1 µM)	1 µg/mL (≈ 2.05 µM)
C[C@H](O)c1nccn1Cc1cc(-c2ccc(C#CC3=CCN(C(=O)C4CC4)CC3)cc2)on1 [Example 36, (S)-cyclopropyl(4-((4-(3-((2-(1-hydroxyethyl)-1H-imidazol-1-yl)methyl)isoxazol-5-yl)phenyl)ethynyl)-3,6-dihydropyridin-1(2H)-yl)methanone]	19 nM	1 µg/mL (≈ 2.26 µM)	0.25 µg/mL (≈ 0.565 µM)
C[C@H](O)c1nccn1Cc1cc(-c2ccc(C#CC3=CCN(C=O)CC3)cc2)on1 [Example 57, (S)-4-((4-(3-((2-(1-hydroxyethyl)-1H-imidazol-1-yl)methyl)isoxazol-5-yl)phenyl)ethynyl)-3,6-dihydropyridine-1(2H)-carbaldehyde]	29.4 nM	2 µg/mL (≈ 4.97 µM)	1 µg/mL (≈ 2.48 µM)
C[C@H](O)c1nccn1Cc1cc(-c2ccc(C#CC3=CCN(C(=O)c4cccnc4)CC3)cc2)on1 [Example 45, (S)-(4-((4-(3-((2-(1-hydroxyethyl)-1H-imidazol-1-yl)methyl)isoxazol-5-yl)phenyl)ethynyl)-3,6-dihydropyridin-1(2H)-yl)(pyridin-3-yl)methanone]	12.3 nM	1 µg/mL (≈ 2.09 µM)	0.5 µg/mL (≈ 1.04 µM)
C[C@H](O)c1nccn1Cc1cc(-c2ccc(C#CC3=CCN(C(=O)C4CCOCC4)CC3)cc2)on1 [Example 66, (S)-(4-((4-(3-((2-(1-hydroxyethyl)-1H-imidazol-1-yl)methyl)isoxazol-5-yl)phenyl)ethynyl)-3,6-dihydropyridin-1(2H)-yl)(tetrahydro-2H-pyran-4-yl)methanone]	18.5 nM	2 µg/mL (≈ 4.11 µM)	1 µg/mL (≈ 2.06 µM)
C[C@H](O)c1nccn1Cc1cc(-c2ccc(C#CC3CC4(C3)CN(C(=O)c3ncn[nH]3)C4)cc2)on1 [Example 55, (S)-(6-((4-(3-((2-(1-hydroxyethyl)-1H-imidazol-1-yl)methyl)isoxazol-5-yl)phenyl)ethynyl)-2-azaspiro[3.3]heptan-2-yl)(1H-1,2,4-triazol-5-yl)methanone]	14.7 nM	2 µg/mL (≈ 4.14 µM)	2 µg/mL (≈ 4.14 µM)
C[C@H](O)c1nccn1Cc1cc(-c2ccc(C#CC3=CCN(C(=O)C4CCCCO4)CC3)cc2)on1 (stereo partly drawn) [Example 65, (4-((4-(3-((2-((S)-1-hydroxyethyl)-1H-imidazol-1-yl)methyl)isoxazol-5-yl)phenyl)ethynyl)-3,6-dihydropyridin-1(2H)-yl)(tetrahydro-2H-pyran-2-yl)methanone]	15.1 nM	2 µg/mL (≈ 4.11 µM)	0.5 µg/mL (≈ 1.03 µM)
C[C@H](O)c1nccn1Cc1cc(-c2ccc(C#CC3=CCN(C(=O)CO)CC3)cc2)on1 [Example 63, (S)-2-hydroxy-1-(4-((4-(3-((2-(1-hydroxyethyl)-1H-imidazol-1-yl)methyl)isoxazol-5-yl)phenyl)ethynyl)-3,6-dihydropyridin-1(2H)-yl)ethan-1-one]	23.6 nM	0.5 µg/mL (≈ 1.16 µM)	0.5 µg/mL (≈ 1.16 µM)
C[C@H](O)c1nccn1Cc1cc(-c2ccc(C#CC3=CCN(C(=O)C4[C@H]5CCC[C@@H]45)CC3)cc2)on1 (stereo partly drawn) [Example 35, ((1R,5S)-bicyclo[3.1.0]hexan-6-yl)(4-((4-(3-((2-((S)-1-hydroxyethyl)-1H-imidazol-1-yl)methyl)isoxazol-5-yl)phenyl)ethynyl)-3,6-dihydropyridin-1(2H)-yl)methanone]		2 µg/mL (≈ 4.14 µM)	2 µg/mL (≈ 4.14 µM)
